Measured values: paper PMC10178848, “Modulating fast skeletal muscle contraction protects skeletal muscle in animal models of Duchenne muscular dystrophy” (The Journal of Clinical Investigation, 2023)

System: mdx mouse EDL muscle
Experiment: Phosphoprotein array analysis (Cell Signaling Phospho Antibody Array)
Description: mdx mouse EDL muscle was prepared for ex vivo analysis as described (n = 5). Muscles were incubated for 1 hour with DMSO or EDG-5506 (5 μM) and then flash frozen in liquid nitrogen. Tissue preparation and analysis were performed as recommended by the manufacturer (Cell Signaling Phospho Antibody Array, Full Moon Biosystems).

## O=c1ccc(-c2cnc(OCC(F)(F)F)nc2)nn1Cc1cncc(F)c1 [EDG-5506]
5 μM, 1 hour
  Fold Change T/C: PPAR-gamma (Ab-112): 1.49
  Fold Change T/C: PPAR-gamma (Phospho-Ser112): 1.26
  Fold Change T/C: PTEN (Ab-380): 1.13
  Fold Change T/C: Raf1 (Ab-43): 0.90
  Fold Change T/C: Rb (Ab-807): 2.11
  Fold Change T/C: Rb (Phospho-Ser807): 0.91
  Fold Change T/C: RelB (Phospho-Ser552): 0.76
  Fold Change T/C: SAPK/JNK (Phospho-Tyr185): 0.84
  Fold Change T/C: SHP-2 (Phospho-Tyr542): 0.91
  Fold Change T/C: SRF (Ab-99): 1.97
  Fold Change T/C: STAT3 (Ab-705): 1.05
  Fold Change T/C: STAT3 (Phospho-Tyr705): 0.92
  Fold Change T/C: STAT4 (Phospho-Tyr693): 1.04
  Fold Change T/C: STAT5A (Ab-780): 0.86
  Fold Change T/C: STAT6 (Ab-645): 1.12
  Fold Change T/C: STAT6 (Phospho-Thr645): 0.89
  Fold Change T/C: SYK (Ab-525): 0.99
  Fold Change T/C: SYK (Phospho-Tyr348): 0.91
  Fold Change T/C: Shc (Ab-349): 0.62
  Fold Change T/C: Smad1 (Ab-465): 0.82
  Fold Change T/C: Smad1 (Phospho-Ser187): 1.60
  Fold Change T/C: Smad2 (Ab-255): 2.57
  Fold Change T/C: Smad2 (Phospho-Ser467): 1.00
  Fold Change T/C: Smad2/3 (Phospho-Thr8): 1.25
  Fold Change T/C: Smad3 (Ab-425): 0.52
  Fold Change T/C: Smad3 (Phospho-Ser213): 1.26
  Fold Change T/C: Src (Ab-418): 1.70
  Fold Change T/C: Src (Phospho-Tyr418): 0.77
  Fold Change T/C: TGFBR2 (Ab-250): 0.90
  Fold Change T/C: Tau (Ab-235): 1.98
  Fold Change T/C: Tau (Phospho-Ser396): 0.90
  Fold Change T/C: Trk B (Ab-515): 1.53
  Fold Change T/C: Tubulin-b: 1.09
  Fold Change T/C: VASP (Ab-157): 1.26
  Fold Change T/C: VEGFR2 (Ab-1214): 1.07
  Fold Change T/C: VEGFR2 (Phospho-Tyr1175): 0.84
  Fold Change T/C: Zap-70 (Ab-319): 1.12
  Fold Change T/C: Zap-70 (Phospho-Tyr319): 1.04
  Fold Change T/C: c-Abl (Ab-412): 0.93
  Fold Change T/C: c-Jun (Ab-243): 1.03
  Fold Change T/C: c-Jun (Phospho-Ser73): 0.91
  Fold Change T/C: eEF2K (Ab-366): 2.10
  Fold Change T/C: eIF2A (Ab-51): 0.86
  Fold Change T/C: eNOS (Ab-1179): 0.92
  Fold Change T/C: p44/42 MAP Kinase (Phospho-Tyr204): 0.88
  Fold Change T/C: p53 (Ab-315): 1.69
  Fold Change T/C: p53 (Phospho-Ser15): 0.20
  changes in implicated signaling pathways (Akt, IGF1, LTBP4/TGF-β): no consistent changes in implicated pathways
4000031744 (T)
  Average Signal of Replicate Spots: 4E-BP1 (Phospho-Thr45): 3952
  Average Signal of Replicate Spots: 14-3-3 theta/tau (Phospho-Ser232): 1343
  Average Signal of Replicate Spots: ACC1 (Phospho-Ser80): 1068
  Average Signal of Replicate Spots: AMPKbeta1 (Phospho-Ser182): 1111
  Average Signal of Replicate Spots: B-RAF (Phospho-Ser446): 1461
  Average Signal of Replicate Spots: BAX (Phospho-Thr167): 923
  Average Signal of Replicate Spots: BCL-XL (Phospho-Ser62): 3298
  Average Signal of Replicate Spots: BLNK (Phospho-Tyr96): 811
  Average Signal of Replicate Spots: CBL (Phospho-Tyr700): 1571
  Average Signal of Replicate Spots: CDK1/CDC2 (Phospho-Tyr15): 1071
  Average Signal of Replicate Spots: CREB (Phospho-Ser133): 971
  Average Signal of Replicate Spots: CaMK2-beta/gamma/delta (Phospho-Thr287): 1442
  Average Signal of Replicate Spots: CaMK2A (Phospho-Thr286): 1017
  Average Signal of Replicate Spots: Caspase 8 (Phospho-Ser347): 1275
  Average Signal of Replicate Spots: Caspase 9 (Phospho-Ser196): 3581
  Average Signal of Replicate Spots: Catenin beta (Phospho-Thr41/Ser45): 1080
  Average Signal of Replicate Spots: Chk2 (Phospho-Thr68): 787
  Average Signal of Replicate Spots: Cyclin D1 (Phospho-Thr286): 2969
  Average Signal of Replicate Spots: Cyclin E1 (Phospho-Thr77): 1889
  Average Signal of Replicate Spots: DARPP-32 (Phospho-Thr34): 1112
  Average Signal of Replicate Spots: EEF2 (Phospho-Thr56): 1593
  Average Signal of Replicate Spots: FADD (Phospho-Ser194): 2520
  Average Signal of Replicate Spots: FAK (Phospho-Ser910): 1946
  Average Signal of Replicate Spots: FGFR1 (Phospho-Tyr654): 2920
  Average Signal of Replicate Spots: GRK2 (Phospho-Ser29): 1817
  Average Signal of Replicate Spots: GSK3 alpha/beta (Phospho-Tyr216/279): 1223
  Average Signal of Replicate Spots: Gab2 (Phospho-Tyr643): 5234
  Average Signal of Replicate Spots: HDAC1 (Phospho-Ser421): 1842
  Average Signal of Replicate Spots: HDAC2 (Phospho-Ser394): 1737
  Average Signal of Replicate Spots: HSP90B (Phospho-Ser226): 2514
  Average Signal of Replicate Spots: IKK-beta (Phospho-Tyr188): 1332
  Average Signal of Replicate Spots: IKK-beta (Phospho-Tyr199): 1363
  Average Signal of Replicate Spots: IKK-gamma (Phospho-Ser31): 1172
  Average Signal of Replicate Spots: IL-4R/CD124 (Phospho-Tyr497): 1616
  Average Signal of Replicate Spots: IL-10R-alpha (Phospho-Tyr496): 1513
  Average Signal of Replicate Spots: IkB-alpha (Phospho-Ser32/36): 10513
  Average Signal of Replicate Spots: Integrin beta-3 (Phospho-Tyr773): 1072
  Average Signal of Replicate Spots: JunB (Phospho-Ser259): 1085
  Average Signal of Replicate Spots: LYN (Phospho-Tyr507): 1395
  Average Signal of Replicate Spots: Lamin A/C (Phospho-Ser392): 969
  Average Signal of Replicate Spots: MEK1 (Phospho-Ser217): 790
  Average Signal of Replicate Spots: NFkB-p65 (Phospho-Ser311): 1154
  Average Signal of Replicate Spots: NFkB-p100/p52 (Phospho-Ser865): 1360
  Average Signal of Replicate Spots: P38 MAPK (Phospho-Thr180/Tyr182): 2391
  Average Signal of Replicate Spots: P70S6K (Phospho-Ser424): 1169
  Average Signal of Replicate Spots: P90RSK (Phospho-Thr359/Ser363): 1665
  Average Signal of Replicate Spots: PDK1 (Phospho-Ser241): 2037
  Average Signal of Replicate Spots: PLCG1 (Phospho-Tyr783): 8981
  Average Signal of Replicate Spots: PLK1 (Phospho-Thr210): 732
  Average Signal of Replicate Spots: PP2A-alpha (Phospho-Tyr307): 1166
  Average Signal of Replicate Spots: PPAR-gamma (Phospho-Ser112): 1480
  Average Signal of Replicate Spots: Rb (Phospho-Ser807): 1194
  Average Signal of Replicate Spots: RelB (Phospho-Ser552): 3212
  Average Signal of Replicate Spots: SAPK/JNK (Phospho-Tyr185): 1041
  Average Signal of Replicate Spots: SHP-2 (Phospho-Tyr542): 1268
  Average Signal of Replicate Spots: STAT3 (Phospho-Tyr705): 1079
  Average Signal of Replicate Spots: STAT4 (Phospho-Tyr693): 52519
  Average Signal of Replicate Spots: STAT6 (Phospho-Thr645): 1124
  Average Signal of Replicate Spots: SYK (Phospho-Tyr348): 1249
  Average Signal of Replicate Spots: Smad1 (Phospho-Ser187): 2057
  Average Signal of Replicate Spots: Smad2 (Phospho-Ser467): 1265
  Average Signal of Replicate Spots: Smad2/3 (Phospho-Thr8): 2539
  Average Signal of Replicate Spots: Smad3 (Phospho-Ser213): 1879
  Average Signal of Replicate Spots: Src (Phospho-Tyr418): 10867
  Average Signal of Replicate Spots: Tau (Phospho-Ser396): 1057
  Average Signal of Replicate Spots: VEGFR2 (Phospho-Tyr1175): 1051
  Average Signal of Replicate Spots: Zap-70 (Phospho-Tyr319): 1504
  Average Signal of Replicate Spots: c-Jun (Phospho-Ser73): 1180
  Average Signal of Replicate Spots: p44/42 MAP Kinase (Phospho-Tyr204): 1035
  Average Signal of Replicate Spots: p53 (Phospho-Ser15): 1903
  Data Normalized to Median Signal: 4E-BP1 (Phospho-Thr45): 3.29
  Data Normalized to Median Signal: 14-3-3 theta/tau (Phospho-Ser232): 1.12
  Data Normalized to Median Signal: ACC1 (Phospho-Ser80): 0.89
  Data Normalized to Median Signal: AMPKbeta1 (Phospho-Ser182): 0.93
  Data Normalized to Median Signal: B-RAF (Phospho-Ser446): 1.22
  Data Normalized to Median Signal: BCL-XL (Phospho-Ser62): 2.75
  Data Normalized to Median Signal: BLNK (Phospho-Tyr96): 0.68
  Data Normalized to Median Signal: CBL (Phospho-Tyr700): 1.31
